Reference: PubChem BioAssay (NCI)
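Exposure lasted 48 hours, with cells grown in 96-well plates and compounds tested at five concentrations. Here, GI50 denotes the concentration required for 50% inhibition of growth. TGI denotes the concentration required for complete inhibition of growth.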

Key:
Experiment in all cases: inhibition of tumour cell growth, NCI panel, 48 h
786-0 renal = test system: 786-0 renal
A498 renal = test system: A498 renal
A549 NSCLC = test system: A549 NSCLC
ACHN renal = test system: ACHN renal
BT-549 breast = test system: BT-549 breast
CAKI-1 renal = test system: CAKI-1 renal
CCRF-CEM leukemia = test system: CCRF-CEM leukemia
COLO 205 colon = test system: COLO 205 colon
DU-145 prostate = test system: DU-145 prostate
EKVX NSCLC = test system: EKVX NSCLC
HCC-2998 colon = test system: HCC-2998 colon
HCT-116 colon = test system: HCT-116 colon
HCT-15 colon = test system: HCT-15 colon
HL-60(TB) leukemia = test system: HL-60(TB) leukemia
HOP-62 NSCLC = test system: HOP-62 NSCLC
HOP-92 NSCLC = test system: HOP-92 NSCLC
HS 578T breast = test system: HS 578T breast
HT29 colon = test system: HT29 colon
IGROV1 ovarian = test system: IGROV1 ovarian
K-562 leukemia = test system: K-562 leukemia
KM12 colon = test system: KM12 colon
LOX IMVI melanoma = test system: LOX IMVI melanoma
M14 melanoma = test system: M14 melanoma
MALME-3M melanoma = test system: MALME-3M melanoma
MCF7 breast = test system: MCF7 breast
MDA-MB-231 breast = test system: MDA-MB-231 breast
MDA-MB-435 = test system: MDA-MB-435
MDA-MB-468 breast = test system: MDA-MB-468 breast
MOLT-4 leukemia = test system: MOLT-4 leukemia
NCI-H226 lung = test system: NCI-H226 lung
NCI-H23 lung = test system: NCI-H23 lung
NCI-H460 lung = test system: NCI-H460 lung
NCI-H522 lung = test system: NCI-H522 lung
OVCAR-3 ovarian = test system: OVCAR-3 ovarian
OVCAR-4 ovarian = test system: OVCAR-4 ovarian
OVCAR-5 ovarian = test system: OVCAR-5 ovarian
OVCAR-8 ovarian = test system: OVCAR-8 ovarian
PC-3 prostate = test system: PC-3 prostate
RPMI-8226 leukemia = test system: RPMI-8226 leukemia
RXF 393 renal = test system: RXF 393 renal
SF-268 CNS = test system: SF-268 CNS
SF-295 CNS = test system: SF-295 CNS
SF-539 CNS = test system: SF-539 CNS
SK-MEL-2 melanoma = test system: SK-MEL-2 melanoma
SK-MEL-28 melanoma = test system: SK-MEL-28 melanoma
SK-MEL-5 melanoma = test system: SK-MEL-5 melanoma
SK-OV-3 ovarian = test system: SK-OV-3 ovarian
SN12C renal = test system: SN12C renal
SNB-19 CNS = test system: SNB-19 CNS
SNB-75 CNS = test system: SNB-75 CNS
SR leukemia = test system: SR leukemia
SW-620 colon = test system: SW-620 colon
T-47D breast = test system: T-47D breast
TK-10 renal = test system: TK-10 renal
U251 CNS = test system: U251 CNS
UACC-257 melanoma = test system: UACC-257 melanoma
UACC-62 melanoma = test system: UACC-62 melanoma
UO-31 renal = test system: UO-31 renal

For CC1=C(C(=O)Nc2ccccc2)C(c2cccc3ccccc23)n2c(nc3ccccc32)N1 (stereo unspecified), the GI50 (786-0 renal) was 25.1 µM, the TGI (786-0 renal) was over 100 µM and the GI50 (A498 renal) was over 100 µM. For the same compound, the TGI (A498 renal) was over 100 µM, the GI50 (A549 NSCLC) was 4.44 µM and the TGI (A549 NSCLC) was over 100 µM. For the same compound, the GI50 (ACHN renal) was 19.3 µM, the TGI (ACHN renal) was over 100 µM and the GI50 (BT-549 breast) was 13.1 µM. The TGI (BT-549 breast) was over 100 µM, the GI50 (CAKI-1 renal) was over 100 µM and the TGI (CAKI-1 renal) was over 100 µM. For the same compound, the GI50 (CCRF-CEM leukemia) was over 100 µM, the TGI (CCRF-CEM leukemia) was over 100 µM and the GI50 (COLO 205 colon) was over 100 µM. It also gave a TGI (COLO 205 colon) of over 100 µM, a GI50 (DU-145 prostate) of 47.3 µM and a TGI (DU-145 prostate) of over 100 µM. For the same compound, the GI50 (EKVX NSCLC) was 73.7 µM, the TGI (EKVX NSCLC) was over 100 µM and the GI50 (HCC-2998 colon) was over 100 µM. It also gave a TGI (HCC-2998 colon) of over 100 µM, a GI50 (HCT-116 colon) of 6.62 µM and a TGI (HCT-116 colon) of over 100 µM. The GI50 (HCT-15 colon) was over 100 µM, the TGI (HCT-15 colon) was over 100 µM and the GI50 (HL-60(TB) leukemia) was over 100 µM. For the same compound, the TGI (HL-60(TB) leukemia) was over 100 µM, the GI50 (HOP-62 NSCLC) was 20.2 µM and the TGI (HOP-62 NSCLC) was 56.9 µM. It also gave a GI50 (HOP-92 NSCLC) of 16.7 µM, a TGI (HOP-92 NSCLC) of over 100 µM and a GI50 (HS 578T breast) of 2.9 µM. The TGI (HS 578T breast) was 20.1 µM, the GI50 (HT29 colon) was over 100 µM and the TGI (HT29 colon) was over 100 µM. It also gave a GI50 (IGROV1 ovarian) of 89.2 µM, a TGI (IGROV1 ovarian) of over 100 µM and a GI50 (K-562 leukemia) of over 100 µM. It also gave a TGI (K-562 leukemia) of over 100 µM, a GI50 (KM12 colon) of over 100 µM and a TGI (KM12 colon) of over 100 µM. The GI50 (LOX IMVI melanoma) was 11 µM, the TGI (LOX IMVI melanoma) was over 100 µM and the GI50 (M14 melanoma) was over 100 µM. It also gave a TGI (M14 melanoma) of over 100 µM, a GI50 (MALME-3M melanoma) of 16.5 µM and a TGI (MALME-3M melanoma) of 82 µM. The GI50 (MCF7 breast) was over 100 µM, the TGI (MCF7 breast) was over 100 µM and the GI50 (MDA-MB-231 breast) was 10.1 µM. It also gave a TGI (MDA-MB-231 breast) of 93.1 µM, a GI50 (MDA-MB-435) of over 100 µM and a TGI (MDA-MB-435) of over 100 µM. The GI50 (MDA-MB-468 breast) was 26.6 µM, the TGI (MDA-MB-468 breast) was over 100 µM and the GI50 (MOLT-4 leukemia) was over 100 µM. For the same compound, the TGI (MOLT-4 leukemia) was over 100 µM, the GI50 (NCI-H226 lung) was 16.4 µM and the TGI (NCI-H226 lung) was 96.1 µM. For the same compound, the GI50 (NCI-H23 lung) was over 100 µM, the TGI (NCI-H23 lung) was over 100 µM and the GI50 (NCI-H460 lung) was over 100 µM. For the same compound, the TGI (NCI-H460 lung) was over 100 µM, the GI50 (NCI-H522 lung) was over 100 µM and the TGI (NCI-H522 lung) was over 100 µM. The GI50 (OVCAR-3 ovarian) was over 100 µM, the TGI (OVCAR-3 ovarian) was over 100 µM and the GI50 (OVCAR-4 ovarian) was 5.93 µM. For the same compound, the TGI (OVCAR-4 ovarian) was over 100 µM, the GI50 (OVCAR-5 ovarian) was over 100 µM and the TGI (OVCAR-5 ovarian) was over 100 µM. For the same compound, the GI50 (OVCAR-8 ovarian) was 14.5 µM, the TGI (OVCAR-8 ovarian) was over 100 µM and the GI50 (PC-3 prostate) was 23.1 µM. The TGI (PC-3 prostate) was over 100 µM, the GI50 (RPMI-8226 leukemia) was over 100 µM and the TGI (RPMI-8226 leukemia) was over 100 µM. The GI50 (RXF 393 renal) was 15.4 µM, the TGI (RXF 393 renal) was 95.1 µM and the GI50 (SF-268 CNS) was 30.4 µM. It also gave a TGI (SF-268 CNS) of over 100 µM, a GI50 (SF-295 CNS) of 60.4 µM and a TGI (SF-295 CNS) of over 100 µM. It also gave a GI50 (SF-539 CNS) of 15.2 µM, a TGI (SF-539 CNS) of over 100 µM and a GI50 (SK-MEL-2 melanoma) of 83.3 µM. For the same compound, the TGI (SK-MEL-2 melanoma) was over 100 µM, the GI50 (SK-MEL-28 melanoma) was over 100 µM and the TGI (SK-MEL-28 melanoma) was over 100 µM. For the same compound, the GI50 (SK-MEL-5 melanoma) was over 100 µM, the TGI (SK-MEL-5 melanoma) was over 100 µM and the GI50 (SK-OV-3 ovarian) was over 100 µM. For the same compound, the TGI (SK-OV-3 ovarian) was over 100 µM, the GI50 (SN12C renal) was 9.91 µM and the TGI (SN12C renal) was over 100 µM. It also gave a GI50 (SNB-19 CNS) of 9.08 µM, a TGI (SNB-19 CNS) of 76.9 µM and a GI50 (SNB-75 CNS) of 1.76 µM. For the same compound, the TGI (SNB-75 CNS) was 5.95 µM, the GI50 (SR leukemia) was over 100 µM and the TGI (SR leukemia) was over 100 µM. It also gave a GI50 (SW-620 colon) of over 100 µM, a TGI (SW-620 colon) of over 100 µM and a GI50 (T-47D breast) of over 100 µM. It also gave a TGI (T-47D breast) of over 100 µM, a GI50 (TK-10 renal) of over 100 µM and a TGI (TK-10 renal) of over 100 µM. For the same compound, the GI50 (U251 CNS) was 11.1 µM, the TGI (U251 CNS) was over 100 µM and the GI50 (UACC-257 melanoma) was over 100 µM. For the same compound, the TGI (UACC-257 melanoma) was over 100 µM, the GI50 (UACC-62 melanoma) was over 100 µM and the TGI (UACC-62 melanoma) was over 100 µM. The GI50 (UO-31 renal) was over 100 µM and the TGI (UO-31 renal) was over 100 µM.
